Results: US20210283107A1, “Methods to Expand the Spectrum of Gram-Positive Antibiotics” (NORTH CAROLINA STATE UNIVERSITY, priority 2016, published 2021)
≈ marks a conversion by molar mass, not a printed value.

Experiments:
[1] = system: A. baumannii mutant AB522; test: MIC against Tn-seq transposon mutant AB522; type: cell-based; conditions: Acinetobacter baumannii
Protocol: (§1) During individual MIC screening, two mutants, AB522 and AB1310, were identified due to their increased sensitivity to the three macrolide antibiotics and vancomycin when compared to AB 5075 (Table 17).
(§2) Day Cultures (6 h) were subcultured to 5×10^5 CFU/mL in cation adjusted Mueller-Hinton broth (CAMHB). Aliquots (1 mL) were placed in culture tubes, and compound was added from 100 mM stock solutions, such that the compound concentration equaled the highest concentration tested (200 μM or 64 μg/mL). Samples were then aliquoted (200 μL) into the first row of wells of a 96-well plate, with all remaining wells being filled with 100 μL of initial bacterial subculture. The wells in row one were mixed five times before 100 μL was transferred to the following row (row two). Row two was then mixed five times, and 100 μL was transferred to row three. This processed was repeated until the final row had been mixed. This process provided a serial dilution of the compound. Plates were covered with Glad Press n'Seal and were incubated under stationary conditions at 37° C. for 16 hours. MIC values were recorded as the lowest concentration at which no bacterial growth was observed.

[2] = system: A. baumannii mutant AB1310; test: Dose dependent resistance suppression (antibiotic MIC with compound) in AB1310; type: cell-based, Acinetobacter baumannii
Protocol: There was no notable reduction in antibiotic MIC observed with either compound and both strains 522 and 1310. […] Even at the highest concentration, no potentiation was observed.
(§3) Day Cultures (6 h) were subcultured to 5×10^5 CFU/mL in cation adjusted Mueller-Hinton broth (CAMHB). […] One milliliter of the resulting solution was aliquoted into a separate culture tube and was dosed with antibiotic so that the resulting concentration was the highest desirable concentration to be tested. Bacteria treated with antibiotic alone were used as a control. Row one of a 96-well plate was filled with 200 μL of the antibiotic/compound solution, and the remaining rows were filled with 100 μL of the remaining 4 mL bacterial subculture. The wells in row one were mixed five times before 100 μL was transferred to the following row (row two). Row two was then mixed five times, and 100 μL was transferred to row three. This process was repeated until the second to last row had been reached. The last row is left unexposed to antibiotic in order to serve as a negative control. The antibiotic only treated bacteria was plated by aliquoting 200 μL of the treated bacteria into row one and filling the remaining rows with untreated bacteria from the original bacteria subculture. The rows were mixed in the same way as described above. Plates were covered with Glad Press n'Seal and were incubated under stationary conditions at 37° C. for 16 hours. MIC values were recorded as the lowest concentration at which no bacterial growth was observed. Fold reductions were determined by comparison of the compound treated wells with the antibiotic only treated control wells.

A. baumannii strain 5001 = test: Potentiation of clarithromycin and vancomycin against clinical isolate; type: cell-based, Acinetobacter baumannii; conditions: with compound at 30 μM
Protocol: (§4) As previously stated, A. baumannii 5075 was chosen for these studies due to its virulence and multidrug resistance, but to further analyze the activity of our lead compounds, 23 A. baumannii clinical isolates obtained from Walter Reed Army Institute of Research (WRAIR) were tested.
as §3

A. baumannii strain 4269 = test: as above; type: cell-based, Acinetobacter baumannii; conditions: with compound at 30 μM
Protocol: as §4, §3

[3] = system: A. baumannii strain 5075 (AB5075); test: Broth microdilution MIC determination of compound alone; type: cell-based; conditions: Acinetobacter baumannii
In short: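 MIC by twofold serial dilution in cation-adjusted Mueller-Hinton broth, inoculum 5×10^5 CFU/mL from 6 h day cultures, top concentration 200 μM (64 μg/mL). Incubated stationary at 37° C. for 16 hours; MIC taken as lowest concentration with no visible growth.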

[4] = system: A. baumannii mutant AB1310; test: MIC against Tn-seq transposon mutant AB1310; type: cell-based; conditions: Acinetobacter baumannii
Protocol: as §1, §2

[5] = system: A. baumannii strain 5075 (AB5075); test: Macrolide sensitization / antibiotic resensitization: antibiotic MIC in presence of compound (broth microdilution); type: cell-based, Acinetobacter baumannii; conditions: for MIC: Acinetobacter baumannii; for potentiation of vancomycin: compound at 10 μM; for reduction in vancomycin MIC (fold): compound at 20 μM; for Josamycin MIC / Oleandomycin MIC / Spiramycin MIC / Troleandomycin MIC: in presence of compound (concentration not given in Table 7); for Amikacin MIC / Gentamicin MIC / Kanamycin MIC / Neomycin MIC / Streptomycin MIC / Tobramycin MIC: in presence of compound (concentration not given in Table 12); for Fold reduction of josamycin MIC: in the presence of compound (concentration not given)
In short: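 A. baumannii AB5075 at 5×10^5 CFU/mL in CAMHB held a fixed compound level while antibiotic was serially diluted. After 16-18 h static at 37° C, MIC was the lowest antibiotic concentration without visible growth. Fold-reduction is relative to antibiotic alone, from duplicates repeated at least twice.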

[6] = compound at 10 μM vs colistin alone, AB5075
[7] = compound at 30 μM vs antibiotic alone, AB5075
[8] = in presence of compound at 4 μM, AB5075
[9] = in presence of compound at 5 μM, AB5075
[10] = in presence of compound at 10 μM, AB5075
[11] = in presence of compound at 15 μM, AB5075
[12] = in presence of compound at 20 μM, AB5075
[13] = in presence of compound at 30 μM, AB5075

`Nc1nc(-c2ccc(NC(=O)c3cc(Cl)cc(Cl)c3)cc2)c[nH]1` [Compound 1] was tested, and the MIC [1] was 12.5 µM (≈ 4.34 µg/mL), the “Azithromycin MIC” value ([2]; compound Conc. Tested 2 (μM)) was 4 µg/mL and the “Clarithromycin MIC” value ([2]; compound Conc. Tested 2 (μM)) was 1 µg/mL. The “Erythromycin MIC” value ([2]; compound Conc. Tested 2 (μM)) was 4 µg/mL, the “Vancomycin MIC” value ([2]; compound Conc. Tested 2 (μM)) was 64 µg/mL and the “Azithromycin MIC” value ([2]; compound Conc. Tested 3 (μM)) was 4 µg/mL. For the same molecule, the “Clarithromycin MIC” value ([2]; compound Conc. Tested 3 (μM)) was 1 µg/mL, the “Erythromycin MIC” value ([2]; compound Conc. Tested 3 (μM)) was 2 µg/mL and the “Vancomycin MIC” value ([2]; compound Conc. Tested 3 (μM)) was 64 µg/mL. The “Azithromycin MIC” value ([2]; compound Conc. Tested 4 (μM)) was 4 µg/mL, the “Clarithromycin MIC” value ([2]; compound Conc. Tested 4 (μM)) was 0.5 µg/mL and the “Erythromycin MIC” value ([2]; compound Conc. Tested 4 (μM)) was 4 µg/mL. The “Vancomycin MIC” value ([2]; compound Conc. Tested 4 (μM)) was 64 µg/mL, the “Azithromycin MIC” value ([2]; compound Conc. Tested 5 (μM)) was 4 µg/mL and the “Clarithromycin MIC” value ([2]; compound Conc. Tested 5 (μM)) was 0.5 µg/mL. The “Erythromycin MIC” value ([2]; compound Conc. Tested 5 (μM)) was 2 µg/mL, the “Vancomycin MIC” value ([2]; compound Conc. Tested 5 (μM)) was 32 µg/mL and the “Clarithromycin MIC” value (A. baumannii strain 5001) was 0.5 µg/mL. For the same molecule, the “Vancomycin MIC” value (A. baumannii strain 5001) was 2 µg/mL, the “Clarithromycin MIC” value (A. baumannii strain 4269) was no more than 0.25 µg/mL and the “Vancomycin MIC” value (A. baumannii strain 4269) was 2 µg/mL. The MIC [3] was 100 µM (≈ 34.7 µg/mL), the MIC [4] was 12.5 µM (≈ 4.34 µg/mL) and the MIC ([5]; read-out: Daptomycm MIC (μg/mL)) was 16 µg/mL. The “Fold Increase (colistin MIC)” value [5, 6] was 8 fold, the potentiation of vancomycin ([5]; AB5075) was “no potentiation activity observed” and the “reduction in vancomycin MIC (fold)” value ([5]; AB5075) was 32 fold. For the same molecule, the “Fold Reduction (daptomycin MIC)” value [5, 7] was 128 fold, the “Fold Reduction (vancomycin MIC)” value [5, 7] was 256 fold and the “Fold Increase (colistin MIC)” value ([5]; compound at 30 μM vs colistin alone, AB5075) was 32 fold. The “Josamycin MIC” value ([5]; AB5075) was 8 µg/mL, the “Oleandomycin MIC” value ([5]; AB5075) was 64 µg/mL and the “Spiramycin MIC” value ([5]; AB5075) was 128 µg/mL. The “Troleandomycin MIC” value ([5]; AB5075) was 32 µg/mL, the “Amikacin MIC” value ([5]; AB5075) was 128 µg/mL and the “Gentamicin MIC” value ([5]; AB5075) was greater than 512 µg/mL. For the same molecule, the “Kanamycin MIC” value ([5]; AB5075) was greater than 512 µg/mL, the “Neomycin MIC” value ([5]; AB5075) was 16 µg/mL and the “Streptomycin MIC” value ([5]; AB5075) was 256 µg/mL. For the same molecule, the “Tobramycin MIC” value ([5]; AB5075) was 64 µg/mL, the “Azithromycin MIC” value [5, 8] was 32 µg/mL and the “Vancomycin MIC” value [5, 8] was 256 µg/mL. The “Azithromycin MIC” value [5, 9] was 32 µg/mL, the “Vancomycin MIC” value [5, 9] was 256 µg/mL and the “Azithromycin MIC” value [5, 10] was 16 µg/mL. The “Vancomycin MIC” value [5, 10] was 256 µg/mL, the “Azithromycin MIC” value [5, 11] was 16 µg/mL and the “Vancomycin MIC” value [5, 11] was 64 µg/mL. The “Azithromycin MIC” value [5, 12] was 16 µg/mL, the “Vancomycin MIC” value [5, 12] was 8 µg/mL and the “Azithromycin MIC” value [5, 13] was 8 µg/mL. For the same molecule, the “Colistin MIC” value [5, 13] was 16 µg/mL, the “Linezolid MIC” value [5, 13] was 128 µg/mL and the “Vancomycin MIC” value [5, 13] was 1 µg/mL. For the same molecule, the “Fold reduction of josamycin MIC” value ([5]; AB5075) was 16 fold.
For `Nc1nc(-c2ccc(NC(=O)c3cc(Br)cc(Br)c3)cc2)c[nH]1` [Compound 4], the MIC [1] was 12.5 µM (≈ 5.45 µg/mL), the “Azithromycin MIC” value ([2]; compound Conc. Tested 2 (μM)) was 4 µg/mL and the “Clarithromycin MIC” value ([2]; compound Conc. Tested 2 (μM)) was 2 µg/mL. The “Erythromycin MIC” value ([2]; compound Conc. Tested 2 (μM)) was 4 µg/mL, the “Vancomycin MIC” value ([2]; compound Conc. Tested 2 (μM)) was 64 µg/mL and the “Azithromycin MIC” value ([2]; compound Conc. Tested 3 (μM)) was 4 µg/mL. For the same molecule, the “Clarithromycin MIC” value ([2]; compound Conc. Tested 3 (μM)) was 1 µg/mL, the “Erythromycin MIC” value ([2]; compound Conc. Tested 3 (μM)) was 2 µg/mL and the “Vancomycin MIC” value ([2]; compound Conc. Tested 3 (μM)) was 32 µg/mL. For the same molecule, the “Azithromycin MIC” value ([2]; compound Conc. Tested 4 (μM)) was 4 µg/mL, the “Clarithromycin MIC” value ([2]; compound Conc. Tested 4 (μM)) was 1 µg/mL and the “Erythromycin MIC” value ([2]; compound Conc. Tested 4 (μM)) was 2 µg/mL. The “Vancomycin MIC” value ([2]; compound Conc. Tested 4 (μM)) was 32 µg/mL, the “Azithromycin MIC” value ([2]; compound Conc. Tested 5 (μM)) was 4 µg/mL and the “Clarithromycin MIC” value ([2]; compound Conc. Tested 5 (μM)) was 0.5 µg/mL. For the same molecule, the “Erythromycin MIC” value ([2]; compound Conc. Tested 5 (μM)) was 2 µg/mL, the “Vancomycin MIC” value ([2]; compound Conc. Tested 5 (μM)) was 32 µg/mL and the “Clarithromycin MIC” value (A. baumannii strain 5001) was 0.5 µg/mL. The “Vancomycin MIC” value (A. baumannii strain 5001) was 1 µg/mL, the “Clarithromycin MIC” value (A. baumannii strain 4269) was no more than 0.25 µg/mL and the “Vancomycin MIC” value (A. baumannii strain 4269) was 64 µg/mL. For the same molecule, the MIC ([3]; compound alone, AB5075, read-out: MIC) was 100 µM (≈ 43.6 µg/mL), the MIC [4] was 12.5 µM (≈ 5.45 µg/mL) and the MIC ([5]; in presence of compound at 30 μM, AB5075, read-out: Daptomycm MIC) was 64 µg/mL. The “Fold Increase (colistin MIC)” value [5, 6] was 0 fold, the potentiation of vancomycin ([5]; AB5075) was “no potentiation activity observed” and the “reduction in vancomycin MIC (fold)” value ([5]; AB5075) was 64 fold. The “Fold Reduction (daptomycin MIC)” value [5, 7] was 32 fold, the “Fold Reduction (vancomycin MIC)” value [5, 7] was 256 fold and the “Fold reduction (clarithromycin MIC)” value [5, 7] was 128 fold. The “Josamycin MIC” value ([5]; AB5075) was 4 µg/mL, the “Oleandomycin MIC” value ([5]; AB5075) was 128 µg/mL and the “Spiramycin MIC” value ([5]; AB5075) was 64 µg/mL. The “Troleandomycin MIC” value ([5]; AB5075) was 16 µg/mL, the “Amikacin MIC” value ([5]; AB5075) was 128 µg/mL and the “Gentamicin MIC” value ([5]; AB5075) was greater than 512 µg/mL. The “Kanamycin MIC” value ([5]; AB5075) was greater than 512 µg/mL, the “Neomycin MIC” value ([5]; AB5075) was 64 µg/mL and the “Streptomycin MIC” value ([5]; AB5075) was 512 µg/mL. The “Tobramycin MIC” value ([5]; AB5075) was 64 µg/mL, the “Azithromycin MIC” value [5, 8] was 64 µg/mL and the “Vancomycin MIC” value [5, 8] was 128 µg/mL. The “Azithromycin MIC” value [5, 9] was 64 µg/mL, the “Vancomycin MIC” value [5, 9] was 256 µg/mL and the “Azithromycin MIC” value [5, 10] was 32 µg/mL. For the same molecule, the “Colistin MIC” value [5, 10] was 0.5 µg/mL, the “Vancomycin MIC” value [5, 10] was 128 µg/mL and the “Azithromycin MIC” value [5, 11] was 8 µg/mL. For the same molecule, the “Vancomycin MIC” value [5, 11] was 32 µg/mL, the “Azithromycin MIC” value [5, 12] was 16 µg/mL and the “Vancomycin MIC” value [5, 12] was 4 µg/mL. For the same molecule, the “Azithromycin MIC” value [5, 13] was 8 µg/mL, the “Colistin MIC” value [5, 13] was 4 µg/mL and the “Linezolid MIC” value [5, 13] was 256 µg/mL. For the same molecule, the “Vancomycin MIC” value [5, 13] was 1 µg/mL and the “Fold reduction of josamycin MIC” value ([5]; AB5075) was 32 fold.
